Consider 3 molecules from US20020007079A1, “MEIOSIS REGULATING COMPOUNDS” (priority 1998, published 2002).

In data set [1] the test system is oocytes. Description: agonistic oocyte assay (germinal vesicle breakdown). It counts as cell-based, mice. The conditions noted are these: for relative GVB (relative effect): indexed against control (0) and FF-MAS (100); for GVB (percentage of oocytes undergoing germinal vesicle breakdown): oocytes cultured 24 hours at 37° C. in Hx-medium (3 mM hypoxanthine). Here is the method: An agonistic oocyte assay can be performed as follows:
Oocytes were obtained from immature female mice (C57BL/6J×DBA/2J F1, Bomholtgaard, Denmark) weighing 13-16 grams, that were kept under controlled temperature (20-22° C.), light (lights on 06.00-18.00) and relative humidity (50-70%). The mice received an intra-peritoneal injection of 0.2 ml gonadotropins (Gonal-F, Serono) containing 20 IU FSH and 48 hours later the animals were killed by cervical dislocation.
The ovaries were dissected out and the oocytes were isolated in Hx-medium (see below) under a stereo microscope by manual rupture of the follicles using a pair of 27 gauge needles. Spherical oocytes displaying an intact germinal vesicle (hereinafter designated GV) were divided in cumulus enclosed oocytes (hereinafter designated CEO) and naked oocytes (hereinafter designated NO) and placed in a-minimum essential medium (α-MEM without ribonucleosides, Gibco BRL, Cat. No. 22561) supplemented with 3 mg/ml bovine serum albumin (BSA, Sigma Cat. No. A-7030), 5 mg/ml human serum albumin (HSA, Statens Seruminstitute, Denmark), 0.23 mM pyruvate (Sigma, Cat. No S-8636), 2 mM glutamine (Flow Cat. No. 16-801), 100 IU/ml penicillin and 100 μg/ml streptomycin (Flow, Cat No. 16-700). This medium was supplemented with 3 mM hypoxanthine (Sigma Cat. No. H-9377) and designated Hx-medium.
The oocytes were rinsed three times in Hx-medium and oocytes of uniform size were divided into groups of CEO and NO. CEO and NO were cultured in 4-well multidishes (Nunclon, Denmark) in which each well contained 0.4 ml of Hx-medium. One control well (i.e., 35-45 oocytes cultured in identical medium with no addition of test compound) was always cultured simultaneously with 3 test wells (35-45 oocytes per well supplemented with test compound).
The oocytes were cultured in a humidified atmosphere of 5% CO2 in air for 24 hours at 37° C. By the end of the culture period, the number of oocytes with germinal vesicle (hereinafter designated GV), germinal vesicle breakdown (hereinafter designated GVB) and polar bodies (hereinafter designated PB), respectively, were counted using a stereomicroscope (Wildt, Leica MZ 12). The percentage GVB, defined as percentage of oocytes undergoing GVB per total number of oocytes in that well, was calculated as:
% GVB=(number of GVB+number of PB/total number oocytes)×100.
The % PB was defined as percentage of oocytes displaying one extruded polar body per total number of oocytes in that well.
The effect of the tested compounds has been indexed against control level and 4,4-5 dimethyl-5β-cholesta-8,14,24-trien-39-ol (hereinafter designated FF-MAS) where controls and FF-MAS are indexed to an effect of 0 and 100, respectively. The relative effect of the tested compound is calculated as follows: […]

The test system of data set [2] is oocytes. The data set is described as follows: in vitro fertilization (IVF) assay. As to conditions: GVB oocytes after 18 hours culture, examined 20-22 hours after insemination; control 22%. It counts as cell-based, mice. The protocol: An in vitro fertilization (IVF) assay can be performed as follows:
Naked oocytes (NO) and cumulus enclosed oocytes (CEO) from immature mice (C57B1 16J×DBAJ/2)F, were isolated and cultured under the same conditions as described for the agonistic oocyte assay (Example 5). […] The dishes were then incubated under defined gas conditions (5% CO2) at 37° C. in a modified (α-MEM IVF-medium. Neither the insemination medium nor the IVF-medium contained hypoxanthine. Examination of the oocytes was carried out 20-22 hours after insemination, in order to check fertilization and to record the number of 2-cell embryos. The percentage fertilization (=fertilization rate) was determined from counts of oocytes that had cleaved into two-cell embryos.

Data set [3] has as its system naked oocytes (NO). The conditions noted are these: previously shown, Byskov et al. Nature 374 (1995), 559-562; cited from earlier work.
Data set [4] concerns naked oocytes (NO). Description: antagonistic oocyte assay (co-culture with FF-MAS). It counts as cell-based, mice. The conditions noted are these: naked oocytes in Hx-medium with 5 μM FF-MAS in co-culture with test compound. The protocol:
An antagonistic oocyte assay can be performed as follows:
20 Oocytes were obtained from immature female mice (C57BI/6J×DBA/2J F1-hybrids, Bomholtgaard, Denmark) weighing 13-16 grams, that were kept under controlled lighting and temperature. The mice received an intra-peritoneal injection of 0.2 ml gonadotropins (Gonal F, Serono, Solna, Sweden, containing 20 IU FSH, alternatively, Puregon, Organon, Swords, Ireland containing 20 IU FSH) and 48 hours later the animals were killed by cervical dislocation.
The ovaries were dissected out and the oocytes were isolated in Hx-medium (see below) under a stereo microscope by manual rupture of the follicles using a pair of 27 gauge needles. […]
By the end of the culture period, the number of oocytes with germinal vesicle (GV) or germinal vesicle breakdown (GVB) and those with polar body (PB) was counted using a stereo-microscope or an inverted microscope with differential interference contrast equipment. The percentage of oocytes with GVB+PB per total number of oocytes were calculated in the test cultures and in the control (positive and negative) culture groups. The relative inhibition of the test compound was calculated by the following formula: […]

A word on the melting point: it is the temperature of the solid-liquid transition. In turn, `CC(C)CCC[C@@H](C)[C@H]1[C@@H](O)C[C@H]2[C@@H]3CC=C4CCCC[C@]4(C)[C@H]3CC[C@]12C` [Example 1, 16β-Hydroxycholest-5-ene] yielded a melting point of 107 to 108 °C. Besides, in the data set with oocytes [1], the “relative GVB (relative effect)” value is 88% and the “GVB (percentage of oocytes undergoing germinal vesicle breakdown)” value is listed as 72%. Besides, the “fertilization rate (oocytes cleaved into two-cell embryos)” value in the data set on oocytes [2] is 62%.

With `CC(C)=CCC[C@@H](C)[C@H]1CC=C2C3=C(CC[C@@]21C)[C@@]1(C)CC[C@H](O)C(C)(C)[C@@H]1CC3` [FF-MAS, 4,4-Dimethyl-5α-cholesta-8,14,24-trien-3β-ol], the “induction of meiosis in NO in vitro” value in the data set on naked oocytes (NO) [3] was “induce meiosis”.

As for “(25R)-160.26-Dihydroxycholest-5-ene [Example 4]”, in the data set with naked oocytes (NO) [4], the “PB (oocytes with polar body)” value was determined as 5%. For the same molecule, in the data set on oocytes [1], the “relative GVB (relative effect)” value came to 73% and the “GVB (percentage of oocytes undergoing germinal vesicle breakdown)” value is 63%.
